Assay results published in ChEMBL document CHEMBL1201862, “PubChem BioAssay data set” (2004).
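A five-concentration, 48-hour dose response in 96-well plates underlies each endpoint, interpolated linearly between surrounding concentrations. GI50 is the concentration that inhibits growth by half.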 Calls of active or inactive are those of the source. Rule as the data show it: active = GI50 up to about 1.1 µM and inactive = higher.

What was measured:
Assay in all cases: NCI-60 cell line screen, 48 h
SR = tested on: SR
CCRF-CEM = tested on: CCRF-CEM
A549 = tested on: A549
HCT-116 = tested on: HCT-116
DU-145 = tested on: DU-145
OVCAR-5 = tested on: OVCAR-5
SK-MEL-5 = tested on: SK-MEL-5
SNB-75 = tested on: SNB-75
SW-620 = tested on: SW-620
NCI-H226 = tested on: NCI-H226
Hs-578T = tested on: Hs-578T
HCT-15 = tested on: HCT-15
SF-268 = tested on: SF-268
OVCAR-8 = tested on: OVCAR-8
MDA-MB-435 = tested on: MDA-MB-435
UO-31 = tested on: UO-31
NCI/ADR-RES = tested on: NCI/ADR-RES
SK-MEL-28 = tested on: SK-MEL-28
HOP-92 = tested on: HOP-92
PC-3 = tested on: PC-3

Compound	GI50 (SR)	GI50 (CCRF-CEM)	GI50 (A549)	GI50 (HCT-116)	GI50 (DU-145)	GI50 (OVCAR-5)	GI50 (SK-MEL-5)	GI50 (SNB-75)	GI50 (SW-620)	GI50 (NCI-H226)	GI50 (Hs-578T)	GI50 (HCT-15)	GI50 (SF-268)	GI50 (OVCAR-8)	GI50 (MDA-MB-435)	GI50 (UO-31)	GI50 (NCI/ADR-RES)	GI50 (SK-MEL-28)	GI50 (HOP-92)	GI50 (PC-3)
CC(=O)ON(C(C)=O)c1ccc(-c2nc3ccccc3s2)cc1C	29.2 µM (inactive)	23.7 µM (inactive)	28.7 µM (inactive)	23.4 µM (inactive)	37.7 µM (inactive)	4.28 µM (inactive)	21.5 µM (inactive)	74.1 µM (inactive)	38.3 µM (inactive)	2.6 µM (inactive)	37.8 µM (inactive)	12.9 µM	52.1 µM (inactive)	52.1 µM (inactive)	60.3 µM (inactive)	50.2 µM (inactive)	21.3 µM (inactive)	76.4 µM (inactive)	43.6 µM (inactive)	30.5 µM (inactive)
CC[S+]([O-])c1c2cc(OC)ccc2nc2ccc(OC)cc12 (stereo not given)	3.51 µM (inactive)	3.79 µM (inactive)	22.6 µM (inactive)	3.19 µM (inactive)	2.59 µM (inactive)	17.8 µM (inactive)	16.4 µM (inactive)	21 µM (inactive)	6.84 µM (inactive)	21.8 µM (inactive)	13.1 µM (inactive)	6.75 µM	14.5 µM (inactive)	5.55 µM (inactive)	8.85 µM (inactive)	4.82 µM (inactive)	20.4 µM (inactive)	7.91 µM (inactive)	7.16 µM (inactive)	10.7 µM (inactive)
O=C1Cc2c(-c3ccc(Cl)cc3)cc(-c3ccccc3)nc2-c2ccccc2N1	7.13 µM (inactive)	6.35 µM (inactive)	5.66 µM (inactive)	3.44 µM (inactive)	8.18 µM (inactive)	16.2 µM (inactive)	5.15 µM (inactive)	3.82 µM (inactive)	11 µM (inactive)	10.8 µM (inactive)	7.26 µM (inactive)	4.85 µM	12.1 µM (inactive)	2.76 µM (inactive)	7.76 µM (inactive)	4.34 µM (inactive)	6.19 µM (inactive)	4.67 µM (inactive)	2.4 µM (inactive)	19.4 µM (inactive)
Cc1ccsc1C(=O)C(CC(=O)c1cccs1)c1ccsc1 (stereo not given)	62.8 µM (inactive)	> 100 µM (inactive)	> 100 µM (inactive)	16.1 µM (inactive)	> 100 µM (inactive)	> 100 µM (inactive)	28.2 µM (inactive)	> 100 µM (inactive)	> 100 µM (inactive)	> 100 µM (inactive)	> 100 µM (inactive)	> 100 µM	> 100 µM (inactive)	> 100 µM (inactive)	> 100 µM (inactive)	54.1 µM (inactive)	37.7 µM (inactive)	> 100 µM (inactive)	> 100 µM (inactive)	45.8 µM (inactive)
Cn1c(=O)c(Br)c(C=O)n(CCO[N+](=O)[O-])c1=O	2.16 µM (inactive)	1.62 µM (inactive)	16.1 µM (inactive)	3.78 µM (inactive)	27.2 µM (inactive)	3.88 µM (inactive)	11.2 µM (inactive)	12.2 µM (inactive)	2.26 µM (inactive)	51.3 µM (inactive)	31 µM (inactive)	4.83 µM	4.28 µM (inactive)	2.52 µM (inactive)	5.42 µM (inactive)	> 10 µM (inactive)	1.74 µM (inactive)	2.07 µM (inactive)	2.72 µM (inactive)	9.14 µM (inactive)
COc1ccc(NC(=O)CC(=O)N2N=C(N3CCCCC3)CC2c2ccccc2)cc1 (stereo not given)	> 100 µM (inactive)	> 100 µM (inactive)	> 100 µM (inactive)	> 100 µM (inactive)	> 100 µM (inactive)	> 100 µM (inactive)	> 100 µM (inactive)	> 100 µM (inactive)	> 100 µM (inactive)	> 100 µM (inactive)	> 100 µM (inactive)	> 100 µM	> 100 µM (inactive)	> 100 µM (inactive)	> 100 µM (inactive)	> 100 µM (inactive)	> 100 µM (inactive)	> 100 µM (inactive)	99.5 µM (inactive)	> 100 µM (inactive)
N#Cc1sc2c(c1OC(=O)c1ccc(Cl)cc1Cl)c(=O)n(-c1ccccc1)c(=S)n2-c1ccccc1	> 100 µM (inactive)	4.85 µM (inactive)	30.5 µM (inactive)	13.4 µM (inactive)	36.1 µM (inactive)	50.7 µM (inactive)	16.6 µM (inactive)	20.8 µM (inactive)	24.5 µM (inactive)	23.8 µM (inactive)	36.7 µM (inactive)	21.5 µM	29.4 µM (inactive)	19.9 µM (inactive)	19.7 µM (inactive)	0.13 µM (active)	16.8 µM (inactive)	> 100 µM (inactive)	20.2 µM (inactive)	25.4 µM (inactive)
C#CC(O)/C=C/CCCCCCC#CC/C=C\CC#CCCCCCC/C=C/C(O)C#C (stereo not given)	2.54 µM (inactive)	0.255 µM (active)	2.59 µM (inactive)	1.57 µM (inactive)	3.01 µM (inactive)	2.48 µM (inactive)	1.44 µM (inactive)	7.19 µM (inactive)	2.35 µM (inactive)	5.32 µM (inactive)	5.9 µM (inactive)	2.55 µM	2.96 µM (inactive)	3.03 µM (inactive)	2.34 µM (inactive)	0.264 µM (active)	2.55 µM (inactive)	1.77 µM (inactive)	2.4 µM (inactive)	11.6 µM (inactive)
COc1ccc(OC)c(N2C(=O)/C(=C\c3ccccc3)SC2c2cc(OC)c(OC)c(OC)c2)c1 (stereo not given)	33.7 µM (inactive)	49.5 µM (inactive)	> 85.7 µM (inactive)	> 100 µM (inactive)	> 100 µM (inactive)	> 93.3 µM (inactive)	> 91.6 µM (inactive)	26.2 µM (inactive)	46.6 µM (inactive)	> 100 µM (inactive)	> 78 µM (inactive)	58.3 µM	> 100 µM (inactive)	> 100 µM (inactive)	26.5 µM (inactive)	> 89.7 µM (inactive)	> 71.3 µM (inactive)	> 100 µM (inactive)	17.5 µM (inactive)	> 89.5 µM (inactive)
COc1ccc(NC(=S)N/N=C(\C)c2nc3cccnc3[nH]2)cc1	3.86 µM (inactive)	2.45 µM (inactive)	5.53 µM (inactive)	3.02 µM (inactive)	6.17 µM (inactive)	6.11 µM (inactive)	4.33 µM (inactive)	12.5 µM (inactive)	6.87 µM (inactive)	3.73 µM (inactive)	19.6 µM (inactive)	4.36 µM	4.04 µM (inactive)	3.19 µM (inactive)	6.62 µM (inactive)	1.97 µM (inactive)	6.62 µM (inactive)	6.46 µM (inactive)	4.4 µM (inactive)	4.48 µM (inactive)
